How the values were obtained:
lymphocytes [1] = experiment: Ex vivo treatment of human blood, TMRE mitochondrial membrane potential of lymphocytes by flow cytometry; assay type: cell-based; conditions: whole blood treated ex vivo with 50 μM before staining with SYTO 13 and TMRE
Experimental: Furthermore, one fraction of blood was treated ex vivo with carbonyl cyanide 3-chlorophenylhydrazone (CCCP), a toxic chemical that is known to disrupt mitochondrial membrane potential.
Blood from a finger prick (approximately 150 μl) was collected into a tube containing 10 μl heparin solution (500 Units/ml; approximately 6% dilution). One 5 μl aliquot of heparinized whole blood was added to a tube with 1 ml Hank's Balance Salt Solution containing SYTO®13 at 5 nM, TMRE at 100 nM, and 20,720 counting beads per ml (beads from Molecular Probes, cat. no. C36950) (i.e., blood diluted another 200-fold). A second fraction of blood was treated with 50 μM CCCP before being stained with SYTO® and TMRE as above. After staining for 30 minutes at room temperature, the samples were analyzed with a FACSCalibur flow cytometer providing 488 nm excitation.
Acquisition was triggered with a FL1 threshold that was set sufficiently high so as to exclude platelets, mature erythrocytes and reticulocytes, thereby restricting acquisition to nucleated cells. By expressing light scatter in linear scale, it was possible to focus on particular subpopulations, for instance lymphocytes that are low in forward and side scatter relative to other nucleated cells (FIG. 4A). […]

reticulocytes = experiment: Radioprotectant evaluation using mouse blood: reticulocytes; assay type: in vivo, C57BL/6J mice; conditions: 400 mg/kg ip, 30 minutes prior to 1 Gy gamma rays; blood collected 46±3 hrs post-irradiation
Experimental: In this experiment, one group of five C57BL/6J mice was sham irradiated, whereas two other groups of five mice were exposed to 1 Gy gamma rays. […] 5 μl of whole blood were added to tubes containing 1 ml HBSS with SYTO®13 at 10 nM, TMRE at 100 nM, and 20,720 counting beads per ml (beads from Molecular Probes, cat. no. C36950). After 30 minutes at room temperature, the samples were moved to 4° C. and analyzed with a FACSCalibur flow cytometer providing 488 nm excitation. In the first round of analysis, a forward scatter threshold was used to trigger data acquisition. With the trigger channel set sufficiently low, platelets as well as all blood cell types were acquired. Similar to thiazole orange, SYTO®13 dye in conjunction with light scatter signals was capable of resolving mature erythrocytes, reticulocytes, nucleated cells, platelets, and reticulated platelets. […] Reticulocytes can thus be quantified as a percentage of all erythrocytes, and reticulated platelets can be quantified as a percentage of all platelets. Furthermore, with the incorporation of the TMRE dye, it was possible to enumerate the percentage of reticulocytes that express dysfunctional mitochondrial membranes.

lymphocytes [2] = experiment: Radioprotectant evaluation using mouse blood: lymphocytes; assay type: in vivo, C57BL/6J mice; conditions: 400 mg/kg ip, 30 minutes prior to 1 Gy gamma rays; blood collected 46±3 hrs post-irradiation
Experimental: In this experiment, one group of five C57BL/6J mice was sham irradiated, whereas two other groups of five mice were exposed to 1 Gy gamma rays. While one group of irradiated mice was injected with vehicle, the other was injected with the radioprotectant agent amifostine (400 mg/kg injected ip, 30 minutes prior to irradiation). […] 5 μl of whole blood were added to tubes containing 1 ml HBSS with SYTO®13 at 10 nM, TMRE at 100 nM, and 20,720 counting beads per ml (beads from Molecular Probes, cat. no. C36950). After 30 minutes at room temperature, the samples were moved to 4° C. and analyzed with a FACSCalibur flow cytometer providing 488 nm excitation. […] Furthermore, with the incorporation of the TMRE dye, it was possible to enumerate the percentage of lymphocytes that express dysfunctional mitochondrial membranes.

## N#CC(C#N)=NNc1cccc(Cl)c1 [CCCP, carbonyl cyanide 3-chlorophenylhydrazone]
Lymphocytes [1]
  TMRE-associated fluorescence of lymphocytes / incidence of TMRE-negative lymphocytes: increased incidence of events falling into this region
Lymphocytes [1]; listed as carbonyl cyanide 3-chlorophenylhydrazone
  TMRE-associated fluorescence of lymphocytes / incidence of TMRE-negative lymphocytes: low TMRE-associated fluorescence

## NCCCNCCSP(=O)(O)O [amifostine]
reticulocytes
  reticulocyte effects of 1 Gy irradiation (decrease of reticulocytes, increase in percentage of reticulocytes with dysfunctional mitochondria): ameliorated
Lymphocytes [2]
  protection against decrease of percentage of lymphocytes by 1 Gy irradiation: no appreciable protection

Reference: patent US8535226B2, “Method for measuring in vivo hematotoxicity with an emphasis on radiation exposure assessment” (Litron Laboratories, Ltd., priority 2007, dated 2013)
